Reference: PubChem BioAssay AID2060894 (Molecular Pharmacology Branch, DTP, NCI, 2025)

System: K12877-001-R-J1-PDC complex spheroid viability
Test: Anticancer human tumor K12877-001-R-J1-PDC patient-derived lung adenocarcinoma cell line growth inhibition [RAS]
Details: for IC50: curve of first compound; for viability, T/C: stronger effect = lower value
Outline: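 Agents were tested in combination matrices in half-log decrements from a top concentration at or near clinical Cmax (10 microM if undetermined). Targets were multi-cell spheroids of tumour lines plus HUVEC and MSC stromal cells.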

[1] = second compound 0.00316 µM, first compound 0.0316 µM
[2] = second compound 0.00316 µM, first compound 0.1 µM
[3] = second compound 0.00316 µM, first compound 0.316 µM
[4] = second compound 0.00316 µM, first compound 1 µM
[5] = second compound 0.00316 µM, first compound 3.16 µM
[6] = second compound 0.00316 µM, first compound 10 µM
[7] = second compound 0.01 µM, first compound 0.0316 µM
[8] = second compound 0.01 µM, first compound 0.1 µM
[9] = second compound 0.01 µM, first compound 0.316 µM
[10] = second compound 0.01 µM, first compound 1 µM
[11] = second compound 0.01 µM, first compound 3.16 µM
[12] = second compound 0.01 µM, first compound 10 µM
[13] = second compound 0.0316 µM, first compound 0.0316 µM
[14] = second compound 0.0316 µM, first compound 0.1 µM
[15] = second compound 0.0316 µM, first compound 0.316 µM
[16] = second compound 0.0316 µM, first compound 1 µM
[17] = second compound 0.0316 µM, first compound 3.16 µM
[18] = second compound 0.0316 µM, first compound 10 µM
[19] = second compound 0.1 µM, first compound 0.0316 µM
[20] = second compound 0.1 µM, first compound 0.1 µM
[21] = second compound 0.1 µM, first compound 0.316 µM
[22] = second compound 0.1 µM, first compound 1 µM
[23] = second compound 0.1 µM, first compound 3.16 µM
[24] = second compound 0.1 µM, first compound 10 µM
[25] = second compound 0.316 µM, first compound 0.0316 µM
[26] = second compound 0.316 µM, first compound 0.1 µM
[27] = second compound 0.316 µM, first compound 0.316 µM
[28] = second compound 0.316 µM, first compound 1 µM
[29] = second compound 0.316 µM, first compound 3.16 µM
[30] = second compound 0.316 µM, first compound 10 µM
[31] = second compound 1 µM, first compound 0.0316 µM
[32] = second compound 1 µM, first compound 0.1 µM
[33] = second compound 1 µM, first compound 0.316 µM
[34] = second compound 1 µM, first compound 1 µM
[35] = second compound 1 µM, first compound 3.16 µM
[36] = second compound 1 µM, first compound 10 µM
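Also: spheroids exposed to agents for one week before readout.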
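For viability, T/C in this document: tumour cells co-cultured with HUVEC and mesenchymal stem cells in spheroids.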

**Q.** Which results are given for `CC(Nc1ccc2c(c1)OCCn1cc(N3C(=O)OCC3C(F)F)nc1-2)C(N)=O` (stereo unspecified) + C=CC(=O)N1CCN(c2nc(OCC3CCCN3C)nc3c(F)c(-c4nc(N)cc(C)c4C(F)(F)F)c(Cl)cc23)C(C)C1?
**A.** IC50 (second compound 0.00316 µM): 1220 nM; IC50 (second compound 0.01 µM): 1920 nM; IC50 (second compound 0.0316 µM): 2120 nM; IC50 (second compound 0.1 µM): 1860 nM; IC50 (second compound 0.316 µM): 1160 nM; IC50 (second compound 1 µM): 1430 nM; viability, T/C [1]: 92%; viability, T/C [2]: 72.8%; viability, T/C [3]: 57.6%; viability, T/C [4]: 61.6%; viability, T/C [5]: 44.9%; viability, T/C [6]: 21.3%; viability, T/C [7]: 86.3%; viability, T/C [8]: 69.6%; viability, T/C [9]: 57.9%; viability, T/C [10]: 64%; viability, T/C [11]: 48.7%; viability, T/C [12]: 18.7%; viability, T/C [13]: 74.3%; viability, T/C [14]: 78.4%; viability, T/C [15]: 57.6%; viability, T/C [16]: 63.1%; viability, T/C [17]: 46.2%; viability, T/C [18]: 16.8%; viability, T/C [19]: 76.7%; viability, T/C [20]: 64.7%; viability, T/C [21]: 65%; viability, T/C [22]: 63.2%; viability, T/C [23]: 40.4%; viability, T/C [24]: 15%; viability, T/C [25]: 75.9%; viability, T/C [26]: 79.1%; viability, T/C [27]: 62.3%; viability, T/C [28]: 50.9%; viability, T/C [29]: 37.6%; viability, T/C [30]: 19.1%; viability, T/C [31]: 77%; viability, T/C [32]: 70.9%; viability, T/C [33]: 62.2%; viability, T/C [34]: 53.1%; viability, T/C [35]: 43.5%; viability, T/C [36]: 19.6%

**Q.** For `CCN1CCN(Cc2ccc(Nc3ncc(F)c(-c4cc(F)c5nc(C)n(C(C)C)c5c4)n3)nc2)CC1` + C=CC(=O)N1CCN(c2nc(OCC3CCCN3C)nc3c(F)c(-c4nc(N)cc(C)c4C(F)(F)F)c(Cl)cc23)C(C)C1, which IC50 (second compound 0.00316 µM) is on record?
**A.** Its IC50 is 945 nM.

**Q.** What about the IC50 (second compound 0.01 µM) of the same compound?
**A.** The IC50 was 545 nM.

**Q.** And the IC50 (second compound 0.0316 µM)?
**A.** The IC50 was 691 nM.

**Q.** What about the IC50 (second compound 0.1 µM) of the same compound?
**A.** Its IC50 is 614 nM.

**Q.** What about the IC50 (second compound 0.316 µM) of the same compound?
**A.** Its IC50 is 597 nM.

**Q.** And the IC50 (second compound 1 µM)?
**A.** Its IC50 is 696 nM.

**Q.** And the viability, T/C (second compound 0.00316 µM, first compound 0.00316 µM)?
**A.** Its viability, T/C is 95.9%.

**Q.** And the viability, T/C (second compound 0.00316 µM, first compound 0.01 µM)?
**A.** The viability, T/C was 103%.

**Q.** What about the viability, T/C [1] of the same compound?
**A.** The viability, T/C was 97.2%.

**Q.** What about the viability, T/C [2] of the same compound?
**A.** The viability, T/C was 91.3%.

**Q.** What about the viability, T/C [3] of the same compound?
**A.** The viability, T/C was 83.5%.

**Q.** And the viability, T/C [4]?
**A.** The viability, T/C was 47.8%.

**Q.** And the viability, T/C (second compound 0.01 µM, first compound 0.00316 µM)?
**A.** Its viability, T/C is 88.3%.

**Q.** And the viability, T/C (second compound 0.01 µM, first compound 0.01 µM)?
**A.** Its viability, T/C is 89.8%.

**Q.** And the viability, T/C [7]?
**A.** Its viability, T/C is 85.2%.

**Q.** And the viability, T/C [8]?
**A.** Its viability, T/C is 95.4%.

**Q.** What about the viability, T/C [9] of the same compound?
**A.** Its viability, T/C is 65.2%.

**Q.** And the viability, T/C [10]?
**A.** Its viability, T/C is 33.2%.

**Q.** What about the viability, T/C (second compound 0.0316 µM, first compound 0.00316 µM) of the same compound?
**A.** Its viability, T/C is 96.4%.

**Q.** And the viability, T/C (second compound 0.0316 µM, first compound 0.01 µM)?
**A.** Its viability, T/C is 90.4%.

**Q.** What about the viability, T/C [13] of the same compound?
**A.** Its viability, T/C is 76.5%.

**Q.** What about the viability, T/C [14] of the same compound?
**A.** Its viability, T/C is 76.7%.

**Q.** What about the viability, T/C [15] of the same compound?
**A.** Its viability, T/C is 75.8%.

**Q.** And the viability, T/C [16]?
**A.** The viability, T/C was 39.2%.

**Q.** What about the viability, T/C (second compound 0.1 µM, first compound 0.00316 µM) of the same compound?
**A.** The viability, T/C was 92.2%.

**Q.** What about the viability, T/C (second compound 0.1 µM, first compound 0.01 µM) of the same compound?
**A.** Its viability, T/C is 84.5%.

**Q.** And the viability, T/C [19]?
**A.** The viability, T/C was 83.3%.

**Q.** What about the viability, T/C [20] of the same compound?
**A.** The viability, T/C was 72.4%.

**Q.** What about the viability, T/C [21] of the same compound?
**A.** Its viability, T/C is 65.8%.

**Q.** And the viability, T/C [22]?
**A.** The viability, T/C was 39.6%.

**Q.** What about the viability, T/C (second compound 0.316 µM, first compound 0.00316 µM) of the same compound?
**A.** Its viability, T/C is 95.2%.

**Q.** What about the viability, T/C (second compound 0.316 µM, first compound 0.01 µM) of the same compound?
**A.** The viability, T/C was 86.5%.

**Q.** And the viability, T/C [25]?
**A.** The viability, T/C was 79.9%.

**Q.** And the viability, T/C [26]?
**A.** The viability, T/C was 77.9%.

**Q.** And the viability, T/C [27]?
**A.** The viability, T/C was 78.6%.

**Q.** What about the viability, T/C [28] of the same compound?
**A.** The viability, T/C was 30.1%.

**Q.** And the viability, T/C (second compound 1 µM, first compound 0.00316 µM)?
**A.** Its viability, T/C is 85%.

**Q.** What about the viability, T/C (second compound 1 µM, first compound 0.01 µM) of the same compound?
**A.** Its viability, T/C is 77.2%.

**Q.** What about the viability, T/C [31] of the same compound?
**A.** Its viability, T/C is 88.1%.

**Q.** And the viability, T/C [32]?
**A.** Its viability, T/C is 81.1%.

**Q.** What about the viability, T/C [33] of the same compound?
**A.** Its viability, T/C is 74.1%.

**Q.** What about the viability, T/C [34] of the same compound?
**A.** The viability, T/C was 38.9%.

**Q.** What does the source list for `C[C@@H](NC(=O)c1ncnc(N)c1Cl)c1ncc(C(=O)Nc2cc(C(F)(F)F)c(Cl)cn2)s1` + C=CC(=O)N1CCN(c2nc(OCC3CCCN3C)nc3c(F)c(-c4nc(N)cc(C)c4C(F)(F)F)c(Cl)cc23)C(C)C1?
**A.** IC50 (second compound 0.00316 µM): > 10000 nM; IC50 (second compound 0.01 µM): > 10000 nM; IC50 (second compound 0.0316 µM): > 10000 nM; IC50 (second compound 0.1 µM): > 10000 nM; IC50 (second compound 0.316 µM): > 10000 nM; IC50 (second compound 1 µM): > 10000 nM; viability, T/C [1]: 94.8%; viability, T/C [2]: 89.7%; viability, T/C [3]: 95.6%; viability, T/C [4]: 99.1%; viability, T/C [5]: 101%; viability, T/C [6]: 99.8%; viability, T/C [7]: 96.8%; viability, T/C [8]: 82.5%; viability, T/C [9]: 92.6%; viability, T/C [10]: 92.9%; viability, T/C [11]: 97.1%; viability, T/C [12]: 85.4%; viability, T/C [13]: 91%; viability, T/C [14]: 86.9%; viability, T/C [15]: 74.3%; viability, T/C [16]: 90.1%; viability, T/C [17]: 86.8%; viability, T/C [18]: 96.5%; viability, T/C [19]: 89.6%; viability, T/C [20]: 83.5%; viability, T/C [21]: 84.7%; viability, T/C [22]: 90.4%; viability, T/C [23]: 83.7%; viability, T/C [24]: 85.2%; viability, T/C [25]: 81.4%; viability, T/C [26]: 81.8%; viability, T/C [27]: 77.1%; viability, T/C [28]: 83.6%; viability, T/C [29]: 83.1%; viability, T/C [30]: 116%; viability, T/C [31]: 75%; viability, T/C [32]: 75.8%; viability, T/C [33]: 89.5%; viability, T/C [34]: 92.5%; viability, T/C [35]: 91.1%; viability, T/C [36]: 113%
